Experiments:
Nucleic Acid = test: Binding affinity to HIV TAR RNA by electrophoretic mobility shift assay in presence of Escherichia coli tRNA; format: nucleic-acid assay, Human immunodeficiency virus
Jurkat = test: Cytotoxicity against human Jurkat cells assessed as cell viability at 120 uM after 4 hrs by WST-1 assay; format: cell-based

SMILES | Kd (Nucleic Acid) | Activity (Jurkat)
CC(=O)N[C@@H](Cc1ccc(O)cc1)C(=O)NCC(=O)N[C@@H](CCCNC(=N)N)C(=O)N[C@@H](CCCCN)C(=O)N[C@@H](CCCCN)C(=O)N[C@@H](CCCNC(=N)N)C(=O)N[C@@H](CCCNC(=N)N)C(=O)N[C@@H](CCC(N)=O)C(=O)N[C@@H](CCCNC(=N)N)C(=O)N[C@@H](CCCNC(=N)N)C(=O)N[C@@H](CCCNC(=N)N)C(N)=O | 260 nM | Non-toxic
CNC(=N)NCCC[C@H](NC(=O)CNC(=O)[C@H](Cc1ccc(O)cc1)NC(C)=O)C(=O)N[C@@H](CCCCN)C(=O)N[C@@H](CCCCN)C(=O)N[C@@H](CCCNC(=N)N)C(=O)N[C@@H](CCCNC(=N)N)C(=O)N[C@@H](CCC(N)=O)C(=O)N[C@@H](CCCNC(=N)N)C(=O)N[C@@H](CCCNC(=N)N)C(=O)N[C@@H](CCCNC(=N)N)C(N)=O | 285 nM | Non-toxic
CNC(=N)NCCC[C@H](NC(=O)[C@H](CCCCN)NC(=O)[C@H](CCCCN)NC(=O)[C@H](CCCNC(=N)N)NC(=O)CNC(=O)[C@H](Cc1ccc(O)cc1)NC(C)=O)C(=O)N[C@@H](CCCNC(=N)N)C(=O)N[C@@H](CCC(N)=O)C(=O)N[C@@H](CCCNC(=N)N)C(=O)N[C@@H](CCCNC(=N)N)C(=O)N[C@@H](CCCNC(=N)N)C(N)=O | 310 nM | Non-toxic
CNC(=N)NCCC[C@H](NC(=O)[C@H](CCCNC(=N)N)NC(=O)[C@H](CCCCN)NC(=O)[C@H](CCCCN)NC(=O)[C@H](CCCNC(=N)N)NC(=O)CNC(=O)[C@H](Cc1ccc(O)cc1)NC(C)=O)C(=O)N[C@@H](CCC(N)=O)C(=O)N[C@@H](CCCNC(=N)N)C(=O)N[C@@H](CCCNC(=N)N)C(=O)N[C@@H](CCCNC(=N)N)C(N)=O | 383 nM | Non-toxic
CNC(=N)NCCC[C@H](NC(=O)[C@H](CCC(N)=O)NC(=O)[C@H](CCCNC(=N)N)NC(=O)[C@H](CCCNC(=N)N)NC(=O)[C@H](CCCCN)NC(=O)[C@H](CCCCN)NC(=O)[C@H](CCCNC(=N)N)NC(=O)CNC(=O)[C@H](Cc1ccc(O)cc1)NC(C)=O)C(=O)N[C@@H](CCCNC(=N)N)C(=O)N[C@@H](CCCNC(=N)N)C(N)=O | 380 nM | Non-toxic
CNC(=N)NCCC[C@H](NC(=O)[C@H](CCCNC(=N)N)NC(=O)[C@H](CCC(N)=O)NC(=O)[C@H](CCCNC(=N)N)NC(=O)[C@H](CCCNC(=N)N)NC(=O)[C@H](CCCCN)NC(=O)[C@H](CCCCN)NC(=O)[C@H](CCCNC(=N)N)NC(=O)CNC(=O)[C@H](Cc1ccc(O)cc1)NC(C)=O)C(=O)N[C@@H](CCCNC(=N)N)C(N)=O | 219 nM | Non-toxic
CNC(=N)NCCC[C@H](NC(=O)[C@H](CCCNC(=N)N)NC(=O)[C@H](CCCNC(=N)N)NC(=O)[C@H](CCC(N)=O)NC(=O)[C@H](CCCNC(=N)N)NC(=O)[C@H](CCCNC(=N)N)NC(=O)[C@H](CCCCN)NC(=O)[C@H](CCCCN)NC(=O)[C@H](CCCNC(=N)N)NC(=O)CNC(=O)[C@H](Cc1ccc(O)cc1)NC(C)=O)C(N)=O | 197 nM | Non-toxic
CC(=O)N[C@@H](Cc1ccc(O)cc1)C(=O)NCC(=O)N[C@@H](CCCNC(=N)N(C)C)C(=O)N[C@@H](CCCCN)C(=O)N[C@@H](CCCCN)C(=O)N[C@@H](CCCNC(=N)N)C(=O)N[C@@H](CCCNC(=N)N)C(=O)N[C@@H](CCC(N)=O)C(=O)N[C@@H](CCCNC(=N)N)C(=O)N[C@@H](CCCNC(=N)N)C(=O)N[C@@H](CCCNC(=N)N)C(N)=O | 279 nM | Non-toxic
CC(=O)N[C@@H](Cc1ccc(O)cc1)C(=O)NCC(=O)N[C@@H](CCCNC(=N)N)C(=O)N[C@@H](CCCCN)C(=O)N[C@@H](CCCCN)C(=O)N[C@@H](CCCNC(=N)N(C)C)C(=O)N[C@@H](CCCNC(=N)N)C(=O)N[C@@H](CCC(N)=O)C(=O)N[C@@H](CCCNC(=N)N)C(=O)N[C@@H](CCCNC(=N)N)C(=O)N[C@@H](CCCNC(=N)N)C(N)=O | 385 nM | Non-toxic
CC(=O)N[C@@H](Cc1ccc(O)cc1)C(=O)NCC(=O)N[C@@H](CCCNC(=N)N)C(=O)N[C@@H](CCCCN)C(=O)N[C@@H](CCCCN)C(=O)N[C@@H](CCCNC(=N)N)C(=O)N[C@@H](CCCNC(=N)N(C)C)C(=O)N[C@@H](CCC(N)=O)C(=O)N[C@@H](CCCNC(=N)N)C(=O)N[C@@H](CCCNC(=N)N)C(=O)N[C@@H](CCCNC(=N)N)C(N)=O | 881 nM | Non-toxic
CC(=O)N[C@@H](Cc1ccc(O)cc1)C(=O)NCC(=O)N[C@@H](CCCNC(=N)N)C(=O)N[C@@H](CCCCN)C(=O)N[C@@H](CCCCN)C(=O)N[C@@H](CCCNC(=N)N)C(=O)N[C@@H](CCCNC(=N)N)C(=O)N[C@@H](CCC(N)=O)C(=O)N[C@@H](CCCNC(=N)N(C)C)C(=O)N[C@@H](CCCNC(=N)N)C(=O)N[C@@H](CCCNC(=N)N)C(N)=O | 398 nM | Non-toxic
CC(=O)N[C@@H](Cc1ccc(O)cc1)C(=O)NCC(=O)N[C@@H](CCCNC(=N)N)C(=O)N[C@@H](CCCCN)C(=O)N[C@@H](CCCCN)C(=O)N[C@@H](CCCNC(=N)N)C(=O)N[C@@H](CCCNC(=N)N)C(=O)N[C@@H](CCC(N)=O)C(=O)N[C@@H](CCCNC(=N)N)C(=O)N[C@@H](CCCNC(=N)N(C)C)C(=O)N[C@@H](CCCNC(=N)N)C(N)=O | 404 nM | Non-toxic
CC(=O)N[C@@H](Cc1ccc(O)cc1)C(=O)NCC(=O)N[C@@H](CCCNC(=N)N)C(=O)N[C@@H](CCCCN)C(=O)N[C@@H](CCCCN)C(=O)N[C@@H](CCCNC(=N)N)C(=O)N[C@@H](CCCNC(=N)N)C(=O)N[C@@H](CCC(N)=O)C(=O)N[C@@H](CCCNC(=N)N)C(=O)N[C@@H](CCCNC(=N)N)C(=O)N[C@@H](CCCNC(=N)N(C)C)C(N)=O | 277 nM | Non-toxic
C/N=C(\NC)NCCC[C@H](NC(=O)CNC(=O)[C@H](Cc1ccc(O)cc1)NC(C)=O)C(=O)N[C@@H](CCCCN)C(=O)N[C@@H](CCCCN)C(=O)N[C@@H](CCCNC(=N)N)C(=O)N[C@@H](CCCNC(=N)N)C(=O)N[C@@H](CCC(N)=O)C(=O)N[C@@H](CCCNC(=N)N)C(=O)N[C@@H](CCCNC(=N)N)C(=O)N[C@@H](CCCNC(=N)N)C(N)=O | 219 nM | Non-toxic
C/N=C(\NC)NCCC[C@H](NC(=O)[C@H](CCCCN)NC(=O)[C@H](CCCCN)NC(=O)[C@H](CCCNC(=N)N)NC(=O)CNC(=O)[C@H](Cc1ccc(O)cc1)NC(C)=O)C(=O)N[C@@H](CCCNC(=N)N)C(=O)N[C@@H](CCC(N)=O)C(=O)N[C@@H](CCCNC(=N)N)C(=O)N[C@@H](CCCNC(=N)N)C(=O)N[C@@H](CCCNC(=N)N)C(N)=O | 328 nM | Non-toxic
C/N=C(\NC)NCCC[C@H](NC(=O)[C@H](CCCNC(=N)N)NC(=O)[C@H](CCCCN)NC(=O)[C@H](CCCCN)NC(=O)[C@H](CCCNC(=N)N)NC(=O)CNC(=O)[C@H](Cc1ccc(O)cc1)NC(C)=O)C(=O)N[C@@H](CCC(N)=O)C(=O)N[C@@H](CCCNC(=N)N)C(=O)N[C@@H](CCCNC(=N)N)C(=O)N[C@@H](CCCNC(=N)N)C(N)=O | 576 nM | Non-toxic
C/N=C(\NC)NCCC[C@H](NC(=O)[C@H](CCC(N)=O)NC(=O)[C@H](CCCNC(=N)N)NC(=O)[C@H](CCCNC(=N)N)NC(=O)[C@H](CCCCN)NC(=O)[C@H](CCCCN)NC(=O)[C@H](CCCNC(=N)N)NC(=O)CNC(=O)[C@H](Cc1ccc(O)cc1)NC(C)=O)C(=O)N[C@@H](CCCNC(=N)N)C(=O)N[C@@H](CCCNC(=N)N)C(N)=O | 527 nM | Non-toxic
